Laboratory results taken from patent publication US12691106B2, “Treating refractive disorders by targeting peroxisome proliferator-activated receptor (PPAR) signaling pathway” (Centre for Eye and Vision Research Limited, priority 2023, dated 2026).

Legend:
[1] = tested on: lens-induced myopia (LIM) chick eyes; assay: Lens-induced myopia (LIM) in chicks, axial length by ultrasonic A-scan; type: in vivo
Protocol: (§1) Chicks age day 7 are divided into 2 groups, lens-induced myopia (LIM) and age-matched control (CTL), randomly. Chick eyes are measured with ultrasonic A-scan and refractive index by retinoscope by a single-masked operator. A computer-controlled randomization is applied to assign either left or right eye for LIM treatment and contralateral eye served as untouch control. Baseline physiological data is acquired on day 7. Purified rosiglitazone (>99%) is purchased from manufacturer and dissolved in 100% Dimethyl sulfoxide (DMSO). A working rosiglitazone solution is prepared in the concentration of 5 mM in 2% DMSO, PBS solution prior use. The rosiglitazone (5 mM, 10 μL) is delivered by intravitreal injection in the LIM eye once a day for 3 consecutive days. A-10 D lens is applied soon after drug delivery. Chick eyes are measured again on day 10 to access the effect of rosiglitazone.
as §1, with “Further, the effect of rosiglitazone in lower dosages is also investigated. Briefly, chicks age” for “Chicks age”, “into 3” for “into 2”, “myopia with higher dosage (LIM with 1 mM, n=7), lens-induced myopia with lower dosage (LIM with 0.2 mM, n=7)” for “myopia (LIM)”, “control (CTL, n=2),” for “control (CTL),”, “as untouched” for “as untouch”, “rosiglitazone (1 mM, 10 μL or 0.2” for “rosiglitazone (5”
Referring to FIG. 1, the rosiglitazone treatment has shown a consistent effect on slowing myopia progression by an average of 65% using different batches of chicks when compared to independent age-matched chicks subjected to LIM treatment. The effect of myopia inhibition is reduced with dose with an exponential regression of y=1.14e^−0.57x, R^2=1) to 37% of inhibition in 1 mM drug and 21% of inhibition in 0.2 mM drug treatment group.

normal growing eye = assay: Effect of rosiglitazone on normal chick eyes; type: in vivo; settings: 5 mM, 10 μL intravitreal injection once a day for 3 days, two time points (FIG. 2)
[2] = in vivo

CN(CCOc1ccc(CC2SC(=O)NC2=O)cc1)c1ccccn1 (stereo not drawn) [rosiglitazone]
inhibition of myopia (axial length) ([1]; 0.2 mM, 10 μL intravitreal injection once a day for 3 days, -10 D lens, measured day 10): 21% | inhibition of myopia (axial length) ([1]; 1 mM, 10 μL intravitreal injection once a day for 3 days, -10 D lens, measured day 10): 37% | slowing myopia progression (axial length), inhibition vs age-matched LIM chicks ([1]; 5 mM, 10 μL intravitreal injection once a day for 3 days, -10 D lens, measured day 10, average over different batches of chicks): 65% | suppression of axial length growth ([1]; dose-dependent, summary statement, dose not given): 65% | effect on normal growing eye or inducing hyperopia in naked eye (normal growing eye): no statistically significant effect | toxicity in animal models [2]: no sign of toxicity
